pIC50: −log10 of the molar value. ≈ marks a conversion by molar mass, not a printed value.
Assays:
[1] = biological target: T1, Catechol O-methyltransferase (Homo sapiens, UniProt P21964); test: Inhibition of recombinant wild-type human COMT expressed in Escherichia coli BL21 using 4-nitrocatechol-Alexa488 as substrate in presence of cofactor SAM preincubated for 1 min followed by substrate addition and measured every 60 sec up to 180 times by fluorescence based microtiter plate reader analysis
T1 sequence (P21964 whole entry): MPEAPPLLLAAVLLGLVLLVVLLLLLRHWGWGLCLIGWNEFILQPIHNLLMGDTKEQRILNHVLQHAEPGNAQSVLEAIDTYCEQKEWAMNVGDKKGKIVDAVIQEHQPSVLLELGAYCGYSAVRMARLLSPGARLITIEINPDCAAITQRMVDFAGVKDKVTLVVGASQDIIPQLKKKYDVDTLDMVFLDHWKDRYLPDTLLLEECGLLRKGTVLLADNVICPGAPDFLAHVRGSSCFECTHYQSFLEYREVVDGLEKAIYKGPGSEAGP

[2] = Distribution coefficient, log D of compound in octanol and water at pH 7.4; format: physicochemical
[3] = Solubility of compound; format: physicochemical

pIC50 [1]	logD [2]	solubility [3] [µg/mL]	SMILES
5.96	4.1	4 (≈ 13.4 µM)	Cc1nc(C)c(-c2cc(C(C)(C)c3ccccc3)[nH]n2)s1
< 3.37	–	–	Cc1nc(Cc2ccccc2)sc1-c1cc[nH]n1
5.96	–	–	Cc1nc(C)c(-c2cc([C@@H](C)c3ccccc3)[nH]n2)s1
6.33	4	5 (≈ 16 µM)	COc1ccc([C@@H](C)c2cc(-c3sc(C)nc3C)n[nH]2)cc1
6.15	4	5 (≈ 17.6 µM)	Cc1nc(C)c(-c2cc([C@H](C)c3ccccc3)[nH]n2)s1
6.00	3.7	2 (≈ 6.68 µM)	COc1ccc(Cc2cc(-c3sc(C)nc3C)n[nH]2)cc1
< 3.20	–	–	Cc1nc(C2CC2)c(-c2cc[nH]n2)s1
5.10	4	4 (≈ 14.1 µM)	Cc1nc(C)c(-c2cc(CCc3ccccc3)[nH]n2)s1
4.47	4.4	8 (≈ 26.9 µM)	Cc1nc(C)c(-c2cc(CCCc3ccccc3)[nH]n2)s1
6.68	4.2	1 (≈ 3.39 µM)	Cc1nc(C)c(-c2cc(C3(c4ccccc4)CC3)[nH]n2)s1
< 3.20	–	–	c1ccc(-c2ncc(-c3cc[nH]n3)s2)cc1
6.07	3.9	5 (≈ 16 µM)	COc1ccc([C@H](C)c2cc(-c3sc(C)nc3C)n[nH]2)cc1
4.62	–	–	Cc1nc(-c2ccccc2)sc1-c1cc[nH]n1
4.68	–	–	CCc1nc(C)c(-c2cc[nH]n2)s1
4.96	–	–	Cc1ccc(-c2nc(C)c(-c3cc[nH]n3)s2)cc1
4.68	4.3	24 (≈ 80.7 µM)	CCC(c1ccccc1)c1cc(-c2sc(C)nc2C)n[nH]1 (stereo not given)
7.12	4.1	2 (≈ 6.15 µM)	COc1ccc(C2(c3cc(-c4sc(C)nc4C)n[nH]3)CC2)cc1
6.05	3.9	3 (≈ 10.6 µM)	Cc1nc(C)c(-c2cc(C(C)c3ccccc3)[nH]n2)s1 (stereo not given)
4.70	2.6	–	CCc1cc(-c2sc(C)nc2C)n[nH]1
5.89	3.9	4 (≈ 11.4 µM)	Cc1nc(C)c(-c2cc(Cc3ccc(-c4cnn(C)c4)cc3)[nH]n2)s1
5.49	–	–	Cc1nc(C)c(-c2cc(Cc3ccc(-c4ccccc4)cc3)[nH]n2)s1
5.70	3.6	15 (≈ 55.7 µM)	Cc1nc(C)c(-c2cc(Cc3ccccc3)[nH]n2)s1
3.89	–	–	Cc1nc(C)c(-c2cc(-c3ccccc3)[nH]n2)s1
